The results in this text go back to the NIST ThermoML archive (doi:10.1021/je600527c).

Molecules are shown by their SMILES. Numbers after ± are expanded uncertainties.

A short description of data set [1]: refractive index (Na D-line) (dimensionless). The following applies: 298.15 K; 101.33 kPa; Liquid; Standard Abbe refractometry.
The conditions of data set [2]: 298.15 K; 101.33 kPa; Liquid; Pycnometric method.

On to `CC(=O)O` [acetic acid], for which, in data set [1], the refractive index turned out to be 1.37 ± 0.001. Further, the mass density in data set [2] is given as 1045 ± 8 kg/m3.
